Data as given in BindingDB's records for doi:10.1021/jm00381a002 (1985).
Where a SMILES comes first, the peptide text is derived from it.

Biological target: gastrin/CCK-B receptor (Rattus norvegicus)
Assay: Inhibitory activity against binding of [125I](Nle11)-HG-13 to gastrin receptor in vitro

| SMILES | IC50 |
| --- | --- |
| CC[C@H](C)[C@H](NC(=O)[C@H](Cc1c[nH]c2ccccc12)NC(=O)OC(C)(C)C)C(=O)N[C@@H](CC(=O)O)C(N)=O (HELM PEPTIDE1{[CC(C)(C)OC(=O)[*:2]].W.I.D.[am]}$$$$V2.0) | 50 µM |
| CC(C)(C)OC(=O)N[C@@H](Cc1c[nH]c2ccccc12)C(=O)N1CCC[C@H]1C(=O)N[C@@H](CC(=O)O)C(N)=O [3-({1-[2-tert-Butoxycarbonylamino-3-(1H-indol-3-yl)-propionyl]-pyrrolidine-2-carbonyl}-amino)-succinamic acid] (HELM PEPTIDE1{[CC(C)(C)OC(=O)[*:2]].W.P.D.[am]}$$$$V2.0) | 100 µM |
| CSCC[C@H](NC(=O)[C@H](Cc1c[nH]c2ccccc12)NC(=O)CNC(=O)OC(C)(C)C)C(=O)N[C@@H](CC(=O)O)C(N)=O [3-{2-[2-(2-tert-Butoxycarbonylamino-acetylamino)-3-(1H-indol-3-yl)-propionylamino]-4-methylsulfanyl-butyrylamino}-succinamic acid] (HELM PEPTIDE1{[CC(C)(C)OC(=O)[*:2]].G.W.M.D.[am]}$$$$V2.0) | 25 µM |
| CC(C)C[C@H](NC(=O)[C@H](Cc1c[nH]c2ccccc12)NC(=O)OCc1ccccc1)C(=O)N[C@@H](CC(=O)O)C(N)=O [3-{2-[2-Benzyloxycarbonylamino-3-(1H-indol-3-yl)-propionylamino]-4-methyl-pentanoylamino}-succinamic acid] (HELM PEPTIDE1{[O=C(OCc1ccccc1)[*:2]].W.L.D.[am]}$$$$V2.0) | 40 µM |
| CC(C)(C)OC(=O)N[C@@H](Cc1c[nH]c2ccccc12)C(=O)N[C@@H](Cc1ccccc1)C(=O)N[C@@H](CC(=O)O)C(N)=O [3-{2-[2-tert-Butoxycarbonylamino-3-(1H-indol-3-yl)-propionylamino]-3-phenyl-propionylamino}-succinamic acid] (HELM PEPTIDE1{[CC(C)(C)OC(=O)[*:2]].W.F.D.[am]}$$$$V2.0) | 30 µM |
| CC(C)C[C@H](NC(=O)[C@H](Cc1c[nH]c2ccccc12)NC(=O)OC(C)(C)C)C(=O)N[C@@H](CC(=O)O)C(=O)N(C)C [3-{2-[2-tert-Butoxycarbonylamino-3-(1H-indol-3-yl)-propionylamino]-4-methyl-pentanoylamino}-N,N-dimethyl-succinamic acid] (HELM PEPTIDE1{[CC(C)(C)OC(=O)[*:2]].W.L.D.[CN(C)[*:1]]}$$$$V2.0) | 100 µM |
| CC(C)CC(NC(=O)[C@H](Cc1c[nH]c2ccccc12)NC(=O)OC(C)(C)C)C(=O)N[C@@H](CC(=O)O)C(N)=O (some centres not stated) [3-{2-[2-tert-Butoxycarbonylamino-3-(1H-indol-3-yl)-propionylamino]-4-methyl-pentanoylamino}-succinamic acid] | 50 µM |
| CSCC[C@H](NC(=O)[C@H](Cc1c[nH]c2ccccc12)NC(=O)OC(C)(C)C)C(=O)N[C@@H](CC(=O)O)C(N)=O [3-{2-[2-tert-Butoxycarbonylamino-3-(1H-indol-3-yl)-propionylamino]-4-methylsulfanyl-butyrylamino}-succinamic acid] (HELM PEPTIDE1{[CC(C)(C)OC(=O)[*:2]].W.M.D.[am]}$$$$V2.0) | 30 µM |
| CCCC[C@H](NC(=O)[C@H](Cc1c[nH]c2ccccc12)NC(=O)OC(C)(C)C)C(=O)N[C@@H](CC(=O)O)C(N)=O [3-{2-[2-tert-Butoxycarbonylamino-3-(1H-indol-3-yl)-propionylamino]-hexanoylamino}-succinamic acid] (HELM PEPTIDE1{[CC(C)(C)OC(=O)[*:2]].W.[Nle].D.[am]}$$$$V2.0) | 30 µM |
| CC(C)C[C@H](NC(=O)[C@H](Cc1c[nH]c2ccccc12)NC(=O)OC(C)(C)C)C(=O)N[C@@H](CCC(=O)O)C(N)=O [4-{2-[2-tert-Butoxycarbonylamino-3-(1H-indol-3-yl)-propionylamino]-4-methyl-pentanoylamino}-4-carbamoyl-butyric acid] (HELM PEPTIDE1{[CC(C)(C)OC(=O)[*:2]].W.L.E.[am]}$$$$V2.0) | 20 µM |
| O=C(N[C@@H](Cc1c[nH]c2ccccc12)C(=O)O)c1ccc(Cl)cc1 [(S)-2-(4-Chloro-benzoylamino)-3-(1H-indol-3-yl)-propionic acid] | 250 µM |
| CC(C)C[C@H](NC(=O)[C@H](Cc1c[nH]c2ccccc12)NC(=O)OC(C)(C)C)C(=O)N[C@@H](C)C(N)=O [[1-[1-(1-Carbamoyl-ethylcarbamoyl)-3-methyl-butylcarbamoyl]-2-(1H-indol-3-yl)-ethyl]-carbamic acid tert-butyl ester] (HELM PEPTIDE1{[CC(C)(C)OC(=O)[*:2]].W.L.A.[am]}$$$$V2.0) | 150 µM |
